Patent US5441983A, “Treatment of infection by enveloped virus with calix(N)arene compounds” (Genelabs Incorporated, priority 1992, dated 1995)
≈ marks a conversion by molar mass, not a printed value. Read-outs that look alike come from different tables or passages of the source.

Tests used:
HIV-HXB = test: Inhibition of syncytia formation, HIV-HXB (HTLV-IIIB); conditions: Human immunodeficiency virus 1, 18 h, read-out: HIV-HXB ED100, complete inhibition of syncytia formation
Experimental: (§13) Briefly, cells chronically infected with HTLV-IIIB or RF-II HIV strains were incubated in the presence of serial dilutions of the selected KY compound, then further cocultured with indicator cells. The extent of syncytia formation was scored under phase microscopy.
(§14) Representative calix(n)arene compounds from Table 2 were tested for inhibition of cytopathic effects in cells infected with one of two HTLV-III strains, HTLV-IIIB and RF-II strains, as described in Example 12, and in the subsection above.
(§15) Human CD4^+ indicator cells (VB) and chronically infected H9 cells were maintained in RPMI-1640 medium supplemented with 5% fetal calf serum, 100 Units of penicillin per ml and 100 μg of streptomycin per ml at 37° C. in a humidified incubator containing 7% CO2.
(§16) For the fusion assay, serial dilutions between 1:2 and 1:2^8 of a selected KY compound, 1 mg/ml in PBS were made in a 96 well round bottom plate. The diluted KY compound was transferred to a 96 well flat-bottom plate. To each well was added 25 μg chronically infected H9 cells (at 2×10^6, cells/ml), or cells chronically infected with RF-II strain HIV, followed by incubation at 37° C. for 45 minutes. To each well was then added 25 μl VB cells (about 5×10^4 cells), and the cells and virus isolates were cocultured for 18 hours in a humid 5% CO2 atmosphere.

HIV-RF-II = test: Inhibition of syncytia formation, HIV-RF-II; conditions: for EC100: Human immunodeficiency virus 1, 18 h, read-out: HIV-RF-II ED100, complete inhibition of syncytia formation
Experimental: as §13, §14, §15, §16

HSV-2 = test: Plaque reduction assay, HSV-2, Vero cells; type: cell-based, HSV-2 (333); conditions: Human alphaherpesvirus 2, Vero
Experimental: (§1) used in Table 3 were further tested for activity against HSV infection in
(§2) a plaque reduction assay, as detailed in Example 6. Here Vero cells, after
(§3) overnight incubation, were exposed to serial dilutions of KY compound,
(§4) from 0.625-10 μg/ml, and HSV-1 or HSV-2 virus for two hours. After
(§5) washing to remove drug and extracellular virus, the cells were further
(§6) incubated for 2 days, then stained and counted for plaque formation.
(§7) Percent inhibition was determined by dividing plaques produced by total
(§8) number of plaques in infected, untreated controls. From the concentration
(§9) effect curve of plaque inhibition (expressed as percent of control), the
(§10) concentration of compound required to produce 50% plaque reduction,
(§11) IC50, was determined. The IC50 values for infection by HSV-1 and
(§12) HSV-2 infection is given in the right-hand columns in Table 3. With

HSV-1 = test: Plaque reduction assay, HSV-1, Vero cells; type: cell-based, HSV-1 (Kos-1); conditions: Human alphaherpesvirus 1, Vero, plaque reduction, Vero cells
Experimental: as §1, §2, §3, §4, §5, §6, §7, §8, §9, §10, §11, §12

Influenza A (Taiwan) = test: Inhibition of influenza A cytopathic effect (clumping) in MDCK cells; type: cell-based, Influenza A virus (A/Taiwan strain); conditions: Influenza A virus, 24 h, 50% reduction in percent clumped cells, read-out: ED50 Influenza A (Taiwan)
Experimental: With virus infection, a cytopathic effect characterized by cell clumping is observed. For each compound tested, drug concentrations of 0.1, 1, 10, 25, and 100 μg/ml were added to cultured cells at the time of virus infection, as detailed in Examples 9 and 11. […] The inhibition of clumping was plotted as a function of drug concentration, to determine the dose effective to produce a 50% reduction in the percent clumped cells, measured with respect to control (no drug treatment).
Assays to assess the antiviral activity of KY- and Y-compounds in tissue culture were performed in 96-well flat-bottom tissue culture plates (Falcon 307), using conditions similar to those used in the cytotoxicity assays described above. In these assays, compound was tested in quadruplicate by serially diluting the compound in 2% FCS-MEM using serial two-fold dilutions (0.05 ml/well). A 0.05 ml volume of the appropriate virus containing approximately 100 median tissue culture infectious doses (TCID50) was then added to all wells except those set aside as antiviral and tissue control wells. Next, approximately 3×10^3 HEp2 cells (0.1 ml) were added to each well. Control wells containing antiviral and no virus (antiviral control), containing virus but no antiviral (virus control), or containing medium without virus or antiviral (tissue control), were included in each test. The challenge virus was then back titrated. All assay plates were incubated at 35° C. for 5 to 7 days in a 5% CO2 incubator.
The anti-influenza A activity of KY compounds was evaluated as described in Example 9, except that MDCK cells (kidney cell line) was used for infection in vitro by influenza virus (strain A/Taiwan).

RSV = test: Inhibition of RSV cytopathic effect in HEp2 cells; type: cell-based; conditions: human respiratory syncytial virus, HEp-2; HEp2 cells, cytopathic effect; read-out: ED50 RSV
[1] = system: panel of human cell lines; test: Cytotoxicity in proliferating human cell lines; type: cell-based; conditions: 72 h, read-out: IC50 drug concentration (50% cell death)
Experimental: In addition, a large number of representative aryl macrocyclic compounds (including those shown in Tables 1 and 2) were examined for toxicity in cell culture, using a panel of human cell lines, as detailed in Example 4. Briefly, the selected KY- or Y- compound was added to cell cultures at a final concentration of 5, 10, 25, 50, or 100 μg/ml. Three days later the cells were washed to remove drug, and stained with a vital stain, to determine the percentage of dead cells in each culture. The IC50 drug concentration, i.e., value concentration of drug which produced 50% cell death, was 50 μg/ml for KY-143, KY-151, and KY-163, and 100 μg/ml or greater for all of the other KY compounds tested. For KY-1, which has a molecular weight of 1404 daltons, a drug concentration of 100 μg/ml is equivalent to about […].
A panel of human cell lines was used to check the toxicity of the drugs, including: KB (nasopharyngeal carcinoma), HeLaS3 (cervical epithelial carcinoma), PLC (hepatocarcinoma), HepG2 (human hepatocarcinoma) HepG2T14 (hepatocarcinoma transfected with HBV), WI38 (normal human lung fibroblast), BT549 (breast cancer), SW480 ([…]), and A549 (lung cancer).
Three days later, the medium was removed and the cells were stained with Commassie Blue in 40% methanol and 7% acetic acid. The results are discussed in Section II above.

HSV-1 or HSV-2 = test: Inhibition of HSV cytopathic effect (CPE) in Vero cells; conditions: 10-20 μg/ml
Experimental: In the method reported in Example 5, Vero cells were infected with HSV-1 or HSV-2 and allowed to grow in culture until cytopathic effects were clearly visible. In the absence of infection, the cells form an even monolayer of fibro-blastlike cells. With HSV infection, a cytopathic effect characterized by round cells in suspension is clearly evident after 24 hours, followed by clumping and lysis of infected cells after 24-72 hours.
In the drug inhibition study reported in Example 5, cells were exposed to HSV-1 or HSV-2 virus and, at the same time, to a selected aryl macrocyclic compound, at a final drug concentration of 10 μg/ml. Twenty-four hours later the cells were examined for cytopathic effect.
Vero cells were maintained in RPMI-1640 medium supplemented with 5% fetal calf serum, 100 Units of penicillin per ml and 100 μg of streptomycin per ml at 37° C. in a humidified incubator containing 7% CO2. The HSV strains HSV-1 (Kos-1) and HSV-2 (333) were used.
1×10^5 Vero cells were plated in each well of a 96 well microtitre plate in 0.2 ml RPMI-1640 medium containing 5% FCS and 0.1% methyl cellulose (15 cps). After overnight incubation, and cell doubling, the medium was aspirated and replaced with 100 .1 of the same medium containing 2% FCS, and 50.1 control or drug solution to a final drug concentration of 10 μg/ml and 50 μl virus, containing about 3 PFU/cell, i.e., 6 x 10^s PFU/well, of HSV-1 or HSV-2.
The cells were cultured for 24 hours at 37° C. at which time cytopathic effects are clearly visible. In the absence of viral infection, the cells form an even monolayer of fibroblast cells. With viral infection, the cells form a suspension of round cells, followed by cell clumping, whose appearance is easily distinguishable from normal fibroblast cells. If no detectable cytopathic effect was produced, the test was repeated with 10 μg/ml. A parallel set of cells without virus inoculation were done as a control for cytotoxicity to Vero cells.

HSV-2 333 = test: Inhibition of viral yield, wild type HSV-2 333; conditions: Human alphaherpesvirus 2, HeLa, read-out: ID90
Experimental: (§17) These compounds tested were the nucleoside analogs acyclovir (ACV), ganciclovir (DHPG), phosphonoformate (PFA), and phosphomethoxyethyladenine (PMEA). Inhibition of viral yield was determined, as above, by infecting Hela cells in the presence of wild type or drug-resistant strains of HSV-1 or HSV-2, and serial dilutions of a selected anti-viral compound, and infecting Vero cells with serial dilutions of the Hela cell lysate, as above.
(§18) The KOS (HSV-1) and 333 (HSV-2) are wild type viruses; the KOS(PMEA)' and KOS(PFA)' are drug-resistant HSV-1 strains having a DNA polymerase mutation. The 333(DHPG) strain is a drug-resistantHSV-2 strain having a thymidine kinase mutation.
(§19) The following strains of HSV-1 and HSV-2 virus were used: KOS, a wild type HSV-1 virus; KOS (PMEA) and KOS (PFA), both drug-resistant HSV-1 viruses having a DNA polymerase mutation; 333, a wild type HSV-2 HSV-2 virus, and 333 (DHPG), a drug-resistant HSV-2 virus having a thymidine kinase mutation.
(§20) After growth at 37° C. for 24 hours in 2 ml of RPMI-1640 containing 2% FCS and penicillin and streptomycin (P/S), the cells were frozen at -70° C. until the time for titration. The cells were freeze/thawed 3 times to release virus from the cells, serially diluted 10 fold, and the serial dilutions were added to Vero cells in culture. After 2 hours incubation at 37° C. the virus was removed and 0.5 ml methycellulose (4K cps) in RPMI-1640 and 2% FCS+P/S was added. Two days later, the medium was removed. The cells were stained in 0.8% crystal violet in 50% ethanol. The plaques formed were counted and the titer was calculated from the fold of dilutions. From the drug dose response, the concentration of each drug required to effect a 90% inhibition of virus yield, the IC90 concentration was determined.

HSV-1 KOS(PMEA)' = test: Inhibition of viral yield, drug-resistant HSV-1 KOS(PMEA)'; conditions: Human alphaherpesvirus 1, HeLa, read-out: ID90
Experimental: as §17, §18, §19, §20

HSV-1 KOS = test: Inhibition of viral yield, wild type HSV-1 KOS; conditions: Human alphaherpesvirus 1, HeLa, read-out: ID90
HSV-1 KOS (PFA)' = test: Inhibition of viral yield, drug-resistant HSV-1 KOS(PFA)'; conditions: Human alphaherpesvirus 1, HeLa, read-out: ID90
Experimental: as §17, §18, §19, §20

HSV-2 333 (DHPG)' = test: Inhibition of viral yield, drug-resistant HSV-2 333(DHPG)'; conditions: Human alphaherpesvirus 2, HeLa, read-out: ID90
Experimental: as §17, §18, §19, §20

Structure (SMILES)	EC100 (HIV-HXB)	EC100 (HIV-RF-II)	IC50 (HSV-2)	IC50 (HSV-1)	EC50 (Influenza A (Taiwan))	EC50 (RSV)	HIV-RF-II ED100 (HIV-RF-II; complete inhibition of syncytia formation)	IC50 ([1]; Homo sapiens)	protection from CPE, in words (HSV-1 or HSV-2)	IC50 ([1]; panel of human cell lines, 3 days)	IC90 (HSV-2 333)	IC90 (HSV-1 KOS(PMEA)')	IC90 (HSV-1 KOS)	IC90 (HSV-1 KOS (PFA)')	IC90 (HSV-2 333 (DHPG)')
O=S(O)c1cc2cc(S(=O)O)c3c(O)c2c(O)c1Cc1c(S(=O)O)cc2cc(S(=O)O)c(c(O)c2c1O)Cc1c(S(=O)O)cc2cc(S(=O)O)c(c(O)c2c1O)Cc1c(S(=O)O)cc2cc(S(=O)O)c(c(O)c2c1O)C3 [KY-123]	16 µg/mL	16 µg/mL	1.5 µg/mL (≈ 1.25 µM)	1.5 µg/mL (≈ 1.25 µM)	31.3 µg/mL (≈ 26.1 µM)	1 µg/mL (≈ 0.832 µM)									
COc1c2c(S(=O)(=O)O)cc3cc(S(=O)(=O)O)c(c(OC)c13)Cc1c(S(=O)(=O)O)cc3cc(S(=O)(=O)O)c(c(OC)c3c1OC)Cc1c(S(=O)(=O)O)cc3cc(S(=O)(=O)O)c(c(OC)c3c1OC)Cc1c(S(=O)(=O)O)cc3cc(S(=O)(=O)O)c(c(OC)c3c1OC)C2 [KY-151]	32 µg/mL		1.8 µg/mL (≈ 1.25 µM)	1.25 µg/mL (≈ 0.867 µM)	> 94 µg/mL	1.5 µg/mL (≈ 1.04 µM)	125	50 µg/mL (≈ 34.7 µM)							
O=S(=O)(O)c1cc2cc(S(=O)(=O)O)c3c(O)c2c(O)c1C(C(O)CO)c1c(S(=O)(=O)O)cc2cc(S(=O)(=O)O)c(c(O)c2c1O)C(C(O)CO)c1c(S(=O)(=O)O)cc2cc(S(=O)(=O)O)c(c(O)c2c1O)C(C(O)CO)c1c(S(=O)(=O)O)cc2cc(S(=O)(=O)O)c(c(O)c2c1O)C3C(O)CO (stereo not drawn) [KY-48]	250 µg/mL								low activity						
CS(=O)(=O)c1cc2cc(S(C)(=O)=O)c3c(O)c2c(O)c1Cc1c(S(C)(=O)=O)cc2cc(S(C)(=O)=O)c(c(O)c2c1O)Cc1c(S(C)(=O)=O)cc2cc(S(C)(=O)=O)c(c(O)c2c1O)Cc1c(S(C)(=O)=O)cc2cc(S(C)(=O)=O)c(c(O)c2c1O)C3 [KY-158]	500 µg/mL	7500 µg/mL	> 10 µg/mL	> 10 µg/mL					low activity						
O=S(=O)(O)c1c2c(O)c3c(O)c(c(S(=O)(=O)O)c(O)c3c1O)Cc1c(S(=O)(=O)O)c(O)c3c(O)c(S(=O)(=O)O)c(c(O)c3c1O)Cc1c(S(=O)(=O)O)c(O)c3c(O)c(S(=O)(=O)O)c(c(O)c3c1O)Cc1c(S(=O)(=O)O)c(O)c3c(O)c(S(=O)(=O)O)c(c(O)c3c1O)C2 [KY-143]	250 µg/mL	125 µg/mL	> 10 µg/mL	> 10 µg/mL					low activity	50 µg/mL (≈ 34.3 µM)					
Nc1ncnc2c1ncn2CCOCP(=O)(O)O [PMEA, phosphomethoxyethyladenine]											155 µM	> 2000 µM	100 µM	> 1000 µM	120 µM
CC(=O)C1c2c(S(=O)(=O)O)cc3cc(S(=O)(=O)O)c(c(O)c3c2O)C(C(C)=O)c2c(S(=O)(=O)O)cc3cc(S(=O)(=O)O)c(c(O)c3c2O)C(C(C)=O)c2c(S(=O)(=O)O)cc3cc(S(=O)(=O)O)c(c(O)c3c2O)C(C(C)=O)c2c(S(=O)(=O)O)cc3cc(S(=O)(=O)O)c1c(O)c3c2O (stereo not drawn) [KY-110]	63 µg/mL		> 10 µg/mL	> 10 µg/mL	> 250 µg/mL	4 µg/mL (≈ 2.67 µM)			low activity						
COS(=O)(=O)c1cc2cc(S(=O)(=O)OC)c3c(O)c2c(O)c1Cc1c(S(=O)(=O)OC)cc2cc(S(=O)(=O)OC)c(c(O)c2c1O)Cc1c(S(=O)(=O)OC)cc2cc(S(=O)(=O)OC)c(c(O)c2c1O)Cc1c(S(=O)(=O)OC)cc2cc(S(=O)(=O)OC)c(c(O)c2c1O)C3 [KY-175]	63 µg/mL	250 µg/mL	> 10 µg/mL	> 10 µg/mL					low activity						
